According to BigSolDB 2.1:

COc1c(O)cc2c(c1O)[C@@H]1O[C@H](CO)[C@@H](O)[C@H](O)[C@H]1OC2=O
solubility (mole fraction)
Details | in DMSO | in ethanol | in ethyl acetate | in ethylene glycol | in isopropanol | in n-butanol | in propylene glycol | in sec-butanol | in transcutol | in water
298.15 K | 0.0171 | 0.00469 | 0.000228 | 0.00774 | 0.00129 | 0.000379 | 0.00777 | 0.000384 | 0.0145 | 7.57e-05
303.15 K | 0.0184 | 0.00537 | 0.000311 | 0.00859 | 0.00139 | 0.000404 | 0.00873 | 0.00041 | 0.0166 | 9.93e-05
308.15 K | 0.02 | 0.00612 | 0.000405 | 0.00944 | 0.00149 | 0.000431 | 0.00966 | 0.00044 | 0.0186 | 0.000125
313.15 K | 0.0214 | 0.00687 | 0.000526 | 0.0105 | 0.00159 | 0.000458 | 0.0108 | 0.000473 | 0.0207 | 0.000155
318.15 K | 0.023 | 0.00777 | 0.000671 | 0.0117 | 0.00169 | 0.000492 | 0.0119 | 0.000514 | 0.0228 | 0.000187

Details | solubility (mole fraction)
in PEG-400, 298.15 K | 0.0236
in PEG-400, 303.15 K | 0.0277
in PEG-400, 308.15 K | 0.032
in PEG-400, 313.15 K | 0.0367
in PEG-400, 318.15 K | 0.0415
